Measured values as given in US20260215432A1, “ANTIMICROBIAL CONJUGATED OLIGOELECTROLYTES AND METHODS THEREOF” (National University of Singapore, priority 2023, published 2026).
Converted amounts (≈) assume the structure as drawn. “And” between values parts separate entries of the source, which are not always exact repeats. Identical values can stand only once.

Columns and labels:
[1] = tested on: M. abscesses (ATCC 19977); test: MIC against mycobacterium in Middlebrook 7H9 broth; type: cell-based, M. abscessus
Procedure: We also examined non-tuberculous mycobacteria (NTM). These are opportunistic pathogens that are rising in clinical significance due to their increasing prevalence and treatment difficulty. The membrane of Mycobacterium is inherently a greater antibiotic permeability barrier due to its high lipid content relative to other pathogens and long-tailed mycolic acids that contributed to its high lipophilic character. The antimicrobial activity of the TPP analogues were also evaluated against Mycobacterium in Middlebrook 7H9 broth.

[2] = tested on: E. coli. K12 (ATCC 10798); test: MIC, broth microdilution in CA-MHB; type: cell-based; details: CA-MHB
Procedure: (§1) Antimicrobial activity was screened against a range of pathogens made up of clinically relevant ESKAPE pathogens by determination of the minimum inhibitory concentration (MIC) in cation-adjusted Mueller-Hinton broth (CA-MHB).
(§2) Minimum inhibitory concentrations of COEs were determined through a broth microdilution method in accordance with the Clinical and Laboratory Standards Institute (CLSI) guidelines M07-A10. A single bacterial colony was isolated from an overnight culture and grown to mid-log phase (OD600~0.8). Compounds were prepared as a stock solution in DMSO and diluted in a sterile flat-bottom 96-well plate in CA-MHB. Subsequent concentrations were prepared by two-fold dilution of the initial solution. An equivalent volume of bacteria was added to the compound to a final concentration of 5×10^5 cfu/mL. Plates were incubated at 37° C. for 16-18 hours, and read at OD600 using a microplate reader (TECAN Spark®). […] MIC values were determined for each compound in triplicate.

A. baumanii (ATCC 17978) = test: MIC, broth microdilution in CA-MHB; type: cell-based; details: CA-MHB
Procedure: as §1, §2

E. facium (ATCC 19434) = test: MIC, broth microdilution in CA-MHB; type: cell-based; details: CA-MHB
Procedure: as §1, §2

[3] = tested on: E. faecalis OG1RF (ATCC 47077); test: MIC, broth microdilution in CA-MHB; type: cell-based; details: CA-MHB
Procedure: as §1, §2

S. aureus (ATCC 29213) = test: MIC, broth microdilution in CA-MHB; type: cell-based
Procedure: as §1, §2

[4] = tested on: K. pneumoniae (carbapenem-resistant Enterobacterales) (ATCC BAA1705); test: MIC, broth microdilution in CA-MHB; type: cell-based; details: CA-MHB
Procedure: as §1, §2

[5] = tested on: Methicillin-resistant S. aureus (ATCC BAA1717); test: MIC, broth microdilution in CA-MHB; type: cell-based; details: for MIC MRSA: CA-MHB; for MIC: towards MRSA, Table 3
Procedure: as §1, §2

[6] = tested on: P. aeruginosa (ATCC47085); test: MIC, broth microdilution in CA-MHB; type: cell-based; details: CA-MHB
Procedure: as §1, §2

[7] = tested on: A549 (lung epithelial cells); test: Cytotoxicity against mammalian cell line; type: cell-based
Procedure: The cytotoxicity of the TPP COEs was also tested against a mammalian cell line (A549).

[8] = phosphate-buffered saline; below 10 μg mL^−1 estimated by turbidimetric screening
Procedure: The solubility of all the TPP derivatives was determined in phosphate-buffered saline (PBS) (Table S3).

Row | MIC ([1]; Mycobacteroides abscessus, ATCC19977) | SMILES | MIC EC [2] | MIC AB (A. baumanii (ATCC 17978)) | MIC FAC (E. facium (ATCC 19434)) | MIC FAE [3] | MIC SA (S. aureus (ATCC 29213)) | MIC KP [4] | MIC MRSA [5] | MIC [5] | MIC PA [6] | IC50 [7] | solubility in PBS [8] | MIC M. abscesses [1]
1 | 8 µg/mL (≈ 13.7 µM) | NCC[C@H](O)C(=O)N[C@@H]1C[C@H](N)[C@@H](O[C@H]2O[C@H](CN)[C@@H](O)[C@H](O)[C@H]2O)[C@H](O)[C@H]1O[C@H]1O[C@H](CO)[C@@H](O)[C@H](N)[C@H]1O [Amikacin, reference compound] | – | – | – | – | – | – | – | – | – | – | – | –
2 | – | C[N+](C)(C)CCCCOc1ccc(/C=C/c2ccc(OCCCC[N+](C)(C)C)cc2)cc1.[I-].[I-] [Compound D4, reference compound] | > 64 µg/mL and 128 µg/mL | >64 µg/mL | 64 µg/mL | 128 µg/mL | >64 µg/mL | >64 µg/mL | >64 µg/mL | > 64 µg/mL | >64 µg/mL | 548 µg/mL | – | –
3 | – | C(=C\c1ccc(OCCCC[P+](c2ccccc2)(c2ccccc2)c2ccccc2)cc1)/c1ccc(OCCCC[P+](c2ccccc2)(c2ccccc2)c2ccccc2)cc1.[I-].[I-] [Compound D4P] | 4 µg/mL and 8 µg/mL | 32 µg/mL | 1 µg/mL | 1 µg/mL | 4 µg/mL | 32 µg/mL | 2 µg/mL | 2 µg/mL | 16 µg/mL | 8 µg/mL | 76 µg/mL | 32 µg/mL
4 | – | C[N+](C)(C)CCCCCCOc1ccc(/C=C/c2ccc(OCCCCCC[N+](C)(C)C)cc2)cc1.[I-].[I-] [Compound D6, reference compound] | 16 µg/mL | >64 µg/mL | 8 µg/mL | 32 µg/mL | 32 µg/mL | >64 µg/mL | 32 µg/mL | 32 µg/mL | >64 µg/mL | 39 µg/mL | – | –
5 | – | C(=C\c1ccc(OCCCCCC[P+](c2ccccc2)(c2ccccc2)c2ccccc2)cc1)/c1ccc(OCCCCCC[P+](c2ccccc2)(c2ccccc2)c2ccccc2)cc1.[I-].[I-] [Compound D6P] | 2 µg/mL | >16 µg/mL | 1 µg/mL | 1 µg/mL | 2 µg/mL | >16 µg/mL | 2 µg/mL | 2 µg/mL | 8 µg/mL | 13 µg/mL | 18 µg/mL | 16 µg/mL
6 | – | C[N+](C)(C)CCCCCCCCOc1ccc(/C=C/c2ccc(OCCCCCCCC[N+](C)(C)C)cc2)cc1.[I-].[I-] [Compound D8, reference compound] | 4 µg/mL | 32 µg/mL | 1 µg/mL | 4 µg/mL | 8 µg/mL | 64 µg/mL | 8 µg/mL | 8 µg/mL | >64 µg/mL | 11 µg/mL | – | –
7 | – | C(=C\c1ccc(OCCCCCCCC[P+](c2ccccc2)(c2ccccc2)c2ccccc2)cc1)/c1ccc(OCCCCCCCC[P+](c2ccccc2)(c2ccccc2)c2ccccc2)cc1.[I-].[I-] [Compound D8P] | – | – | – | – | – | – | – | – | – | – | 4 µg/mL | –
